{"source": "patent US10041937B2", "about": "“Macrophage identification agent, and identification method, sorting method, evaluation method, screening method and kit using the macrophage identifier agent” (CANON KABUSHIKI KAISHA, priority 2013, dated 2018)", "system": "M1 macrophages and M2 macrophages differentiated from mouse bone marrow cells", "test": "Subtype identification by staining and flow cytometry of M1 and M2 macrophages differentiated from mouse bone marrow cells", "format": "cell-based, Balb/c mouse", "settings": "for Selectivity: subtype strongly stained", "outline": "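Balb/c mouse bone marrow cells were differentiated to macrophages with 50 ng/mL M-CSF over two 3–4-day periods, then polarized for 3 days to M1 (interferon-γ plus polyliposaccharide) or M2 (IL-4). Live cells (aqua dye-negative) were analysed by flow cytometry; resolution R = |FM1−FM2|/(WM1+WM2) from histogram peak positions and widths indexed subtype discrimination.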", "key": {"[1]": {"settings": "R=|FM1−FM2|/(WM1+WM2), compound 1 μM"}, "[2]": {"settings": "fluorescence intensity at peak top of histogram, compound 1 μM, 37° C., 30 minutes"}, "[3]": {"settings": "M1 vs M2 macrophages from mouse bone marrow cells, general formula (6) dyes (Table 7)"}, "[4]": {"settings": "class based on resolution R, general formula (6) dyes (Table 7)"}, "[5]": {"settings": "mouse bone marrow-derived M1 macrophages, channel listed per compound, general formula (6) dyes (Table 7)"}, "[6]": {"settings": "mouse bone marrow-derived M2 macrophages, channel listed per compound, general formula (6) dyes (Table 7)"}, "[7]": {"settings": "M1 vs M2 macrophages from mouse bone marrow cells, general formula (10) dyes (Table 8)"}, "[8]": {"settings": "class based on resolution R, general formula (10) dyes (Table 8)"}, "[9]": {"settings": "mouse bone marrow-derived M1 macrophages, channel listed per compound, general formula (10) dyes (Table 8)"}, "[10]": {"settings": "mouse bone marrow-derived M2 macrophages, channel listed per compound, general formula (10) dyes (Table 8)"}, "[11]": {"settings": "M1 vs M2 macrophages from mouse bone marrow cells, general formula (11) dyes (Table 9)"}, "[12]": {"settings": "class based on resolution R, general formula (11) dyes (Table 9)"}, "[13]": {"settings": "mouse bone marrow-derived M1 macrophages, channel listed per compound, general formula (11) dyes (Table 9)"}, "[14]": {"settings": "mouse bone marrow-derived M2 macrophages, channel listed per compound, general formula (11) dyes (Table 9)"}}, "data": [{"smiles": "CCN1C(=O)S/C(=c2/s/c(=C/c3ccc4c(c3)C3CCCC3N4Cc3ccccc3)c(=O)n2CC(=O)O)C1=O", "note": "(centres unmarked) [(43)]", "values": [{"measurement": "Resolution ratio R", "setting": "[1]", "result": 0.411}, {"measurement": "Peak position of M1 macrophage", "setting": "[2]", "result": 7.14}, {"measurement": "Peak position of M2 macrophage", "setting": "[2]", "result": 13.0}, {"measurement": "Evaluation of macrophage subtype identification", "setting": "rated from resolution R", "result": "B (the compound is good in the subtype identification (namely, the resolution R is 0.15 or more and less than 0.5))"}]}, {"smiles": "CN1/C(=C\\C=C\\C2=[N+](C)c3ccccc3C2(C)C)C(C)(C)c2ccccc21", "note": "[(95)]", "values": [{"measurement": "Resolution ratio R", "setting": "[3]", "result": 0.421}, {"measurement": "Evaluation of macrophage subtype identification", "setting": "[4]", "result": "B (the compound is good in the subtype identification (namely, the resolution R is 0.15 or more and less than 0.5))"}, {"measurement": "Peak position of M1 macrophage", "setting": "[5]", "result": 71.57}, {"measurement": "Peak position of M2 macrophage", "setting": "[6]", "result": 133.45}]}, {"smiles": "CCN1/C(=C\\C=C\\c2ccc3ccccc3[n+]2CC)C=Cc2ccccc21", "note": "[(104)]", "values": [{"measurement": "Resolution ratio R", "setting": "[3]", "result": 0.698}, {"measurement": "Evaluation of macrophage subtype identification", "setting": "[4]", "result": "A (The compound is very good in the subtype identification (namely, the resolution R is 0.5 or more))"}, {"measurement": "Peak position of M1 macrophage", "setting": "[5]", "result": 95.26}, {"measurement": "Peak position of M2 macrophage", "setting": "[6]", "result": 197.19}, {"measurement": "Selectivity", "setting": "general formula (6) dyes (Table 7)", "result": "M2"}]}, {"smiles": "CCN1c2ccc(/C=C3/SC(=S)N(CC(=O)O)C3=O)cc2C2CCCC21", "note": "(centres unmarked) [(26)]", "values": [{"measurement": "Resolution ratio R", "setting": "[1]", "result": 0.202}, {"measurement": "Peak position of M1 macrophage", "setting": "[2]", "result": 3.51}, {"measurement": "Peak position of M2 macrophage", "setting": "[2]", "result": 4.49}, {"measurement": "Evaluation of macrophage subtype identification", "setting": "rated from resolution R", "result": "B (the compound is good in the subtype identification (namely, the resolution R is 0.15 or more and less than 0.5))"}]}, {"smiles": "COc1ccc(N2c3ccc(/C=C/C4=[N+](CCC(=O)O)c5ccc6ccccc6c5C4(C)C)cc3C3CCCC32)cc1", "note": "(centres unmarked) [(60)]", "values": [{"measurement": "Resolution ratio R", "setting": "[1]", "result": 0.621}, {"measurement": "Peak position of M1 macrophage", "setting": "[2]", "result": 4.55}, {"measurement": "Peak position of M2 macrophage", "setting": "[2]", "result": 7.65}, {"measurement": "Evaluation of macrophage subtype identification", "setting": "rated from resolution R", "result": "A (The compound is very good in the subtype identification (namely, the resolution R is 0.5 or more))"}]}, {"smiles": "CCN(CC)c1ccc2cc(-c3nc4cc(C(=O)O)ccc4o3)c(=O)oc2c1", "note": "[(127)]", "values": [{"measurement": "Resolution ratio R", "setting": "[7]", "result": 0.381}, {"measurement": "Evaluation of macrophage subtype identification", "setting": "[8]", "result": "B (the compound is good in the subtype identification (namely, the resolution R is 0.15 or more and less than 0.5))"}, {"measurement": "Peak position of M1 macrophage", "setting": "[9]", "result": 3.99}, {"measurement": "Peak position of M2 macrophage", "setting": "[10]", "result": 6.00}]}, {"smiles": "CC1(C)C(/C=C/C=C/C=C/C=C2\\N(CCCCCC(=O)[O-])c3ccccc3C2(C)C)=[N+](CCCCCC(=O)[O-])c2ccccc21.[Na+]", "note": "[(91)]", "values": [{"measurement": "Resolution ratio R", "setting": "[3]", "result": 0.476}, {"measurement": "Evaluation of macrophage subtype identification", "setting": "[4]", "result": "B (the compound is good in the subtype identification (namely, the resolution R is 0.15 or more and less than 0.5))"}, {"measurement": "Peak position of M1 macrophage", "setting": "[5]", "result": 2.96}, {"measurement": "Peak position of M2 macrophage", "setting": "[6]", "result": 13.89}]}, {"smiles": "CCC1=C(C)C2=C(C)c3c(C)c(CC)c(C)n3[B-](C#C[Si](C)(C)C)(C#C[Si](C)(C)C)[N+]2=C1C", "note": "[compound (154)]", "values": [{"measurement": "Resolution ratio R", "setting": "[11]", "result": 0.160}, {"measurement": "Evaluation of macrophage subtype identification", "setting": "[12]", "result": "B (the compound is good in the subtype identification (namely, the resolution R is 0.15 or more and less than 0.5))"}, {"measurement": "Peak position of M1 macrophage", "setting": "[13]", "result": 1.25}, {"measurement": "Peak position of M2 macrophage", "setting": "[14]", "result": 1.63}]}, {"smiles": "O=C(O)CCN1C(=O)/C(=C\\c2ccc3c(c2)C2CCCC2N3c2ccc(C=C(c3ccccc3)c3ccccc3)cc2)SC1=S", "note": "(centres unmarked) [(32)]", "values": [{"measurement": "Resolution ratio R", "setting": "[1]", "result": 0.476}, {"measurement": "Peak position of M1 macrophage", "setting": "[2]", "result": 88.7}, {"measurement": "Peak position of M2 macrophage", "setting": "[2]", "result": 155}, {"measurement": "Evaluation of macrophage subtype identification", "setting": "rated from resolution R", "result": "B (the compound is good in the subtype identification (namely, the resolution R is 0.15 or more and less than 0.5))"}]}, {"smiles": "CCCCCCCCN1C(=O)/C(=c2\\s/c(=C/c3ccc4c(c3)C3CCCC3N4c3ccc(C=C(c4ccccc4)c4ccccc4)cc3)c(=O)n2CC(=O)O)SC1=S", "note": "(centres unmarked) [(38)]", "values": [{"measurement": "Resolution ratio R", "setting": "[1]", "result": 0.724}, {"measurement": "Peak position of M1 macrophage", "setting": "[2]", "result": 3.74}, {"measurement": "Peak position of M2 macrophage", "setting": "[2]", "result": 1.63}, {"measurement": "Evaluation of macrophage subtype identification", "setting": "rated from resolution R", "result": "A (The compound is very good in the subtype identification (namely, the resolution R is 0.5 or more))"}]}, {"smiles": "CN1\\C(=C/C=C/C=C/C2=[N+](C)c3ccc4ccccc4c3C2(C)C)C(C)(C)c2c1ccc1ccccc21", "note": "[(92)]", "values": [{"measurement": "Resolution ratio R", "setting": "[3]", "result": 0.534}, {"measurement": "Evaluation of macrophage subtype identification", "setting": "[4]", "result": "A (The compound is very good in the subtype identification (namely, the resolution R is 0.5 or more))"}, {"measurement": "Peak position of M1 macrophage", "setting": "[5]", "result": 2.27}, {"measurement": "Peak position of M2 macrophage", "setting": "[6]", "result": 3.9}]}, {"smiles": "Cc1cc(C)n2c1C=C1C=CC(CCC(=O)O)=[N+]1[B-]2(F)F", "note": "[(157)]", "values": [{"measurement": "Resolution ratio R", "setting": "[11]", "result": 0.637}, {"measurement": "Evaluation of macrophage subtype identification", "setting": "[12]", "result": "A (The compound is very good in the subtype identification (namely, the resolution R is 0.5 or more))"}, {"measurement": "Peak position of M1 macrophage", "setting": "[13]", "result": 2.57}, {"measurement": "Peak position of M2 macrophage", "setting": "[14]", "result": 5.62}]}, {"smiles": "CCN(CC)c1ccc2cc(-c3nc4ncccc4o3)c(=O)oc2c1", "note": "[compound (116)]", "values": [{"measurement": "Resolution ratio R", "setting": "[7]", "result": 0.772}, {"measurement": "Evaluation of macrophage subtype identification", "setting": "[8]", "result": "A (The compound is very good in the subtype identification (namely, the resolution R is 0.5 or more))"}, {"measurement": "Peak position of M1 macrophage", "setting": "[9]", "result": 4.91}, {"measurement": "Peak position of M2 macrophage", "setting": "[10]", "result": 12.1}, {"measurement": "subtype more strongly stained", "setting": "two compounds used in combination, each 1 μM", "result": "more strongly stain the M2 macrophages than the M1 macrophages"}]}, {"smiles": "O=C(O)CN1C(=O)/C(=C\\C=C\\c2ccc3c(c2)C2CCCC2N3c2ccccc2)SC1=S", "note": "(centres unmarked) [(85)]", "values": [{"measurement": "Resolution ratio R", "setting": "[1]", "result": 0.179}, {"measurement": "Peak position of M1 macrophage", "setting": "[2]", "result": 225}, {"measurement": "Peak position of M2 macrophage", "setting": "[2]", "result": 285}, {"measurement": "Evaluation of macrophage subtype identification", "setting": "rated from resolution R", "result": "B (the compound is good in the subtype identification (namely, the resolution R is 0.15 or more and less than 0.5))"}]}, {"smiles": "CCN(CC)c1ccc2cc(-c3nc4ccc(OC)cc4o3)c(=O)oc2c1", "note": "[(132)]", "values": [{"measurement": "Resolution ratio R", "setting": "[7]", "result": 0.624}, {"measurement": "Evaluation of macrophage subtype identification", "setting": "[8]", "result": "A (The compound is very good in the subtype identification (namely, the resolution R is 0.5 or more))"}, {"measurement": "Peak position of M1 macrophage", "setting": "[9]", "result": 30.3}, {"measurement": "Peak position of M2 macrophage", "setting": "[10]", "result": 53.8}]}, {"smiles": "CCN(CC)c1ccc2cc(C(=O)c3cc4ccc(N(CC)CC)cc4oc3=O)c(=O)oc2c1", "note": "[comparative compound (4), reference compound]", "values": [{"measurement": "Resolution ratio R", "setting": "[7]", "result": 0.053}, {"measurement": "Evaluation of macrophage subtype identification", "setting": "[8]", "result": "C (the compound cannot identify the subtypes (namely, the resolution R is less than 0.15))"}, {"measurement": "difference in the staining intensity between the M1 macrophages and the M2 macrophages / identification", "setting": "mouse bone marrow derived", "result": "no difference in the staining intensity"}, {"measurement": "Peak position of M1 macrophage", "setting": "[9]", "result": 0.88}, {"measurement": "Peak position of M2 macrophage", "setting": "[10]", "result": 1.05}, {"measurement": "Selectivity", "setting": "general formula (10) dyes (Table 8)", "result": "No"}]}]}
